The text below walks through data of the METLIN SMRT retention time set (Domingo-Almenara et al. 2019).

The nature of this series: gradient 5% acetonitrile 3 min, to 50% in 2 min, to 85% in 15 min, held 3 min, 100 µL/min. The note with it: column: Zorbax Extend-C18 2.1 x 50 mm; eluents: water / acetonitrile, 0.1% formic acid. Summed up:
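Retention time was recorded from adduct peaks, which were picked computationally and each inspected manually. Pure standards ran in mixtures of ~100 molecules on HPLC coupled to a quadrupole time-of-flight mass spectrometer, in positive and negative ionization mode, through a Zorbax Extend-C18 column (2.1 × 50 mm, 1.8 μm) at 100 μL/min. Eluents were water and acetonitrile, each with 0.1% formic acid.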
As to `COC(=O)c1cccc(NC(=O)CSc2cc(N3CCN(c4ccc(OC)cc4)CC3)ncn2)c1`, the RP-LC retention time was determined as 905 s.

With `O=C(Nc1c(-c2ccccc2)nc2ccccn12)c1ccc([N+](=O)[O-])cc1`, the RP-LC retention time amounted to 654 s.

Regarding `CCOCCCNS(=O)(=O)c1cc(-c2nc(C)c(C)s2)sc1C`, the RP-LC retention time amounted to 961 s. `Cn1nc(CN2CCCC2)c2c1CCN(S(=O)(=O)c1ccc(F)cc1F)C2` showed an RP-LC retention time of 622 s. `Cc1ccccc1-c1noc(-c2ccc(S(=O)(=O)N3CCCC3)o2)n1` displayed an RP-LC retention time of 1070 s. Regarding `O=C(NC1CCCCC1)c1ccn[nH]1`, the RP-LC retention time stood at 642 s. The molecule `Cc1cccc(-c2nc(Cc3noc(COc4ccccc4)n3)c(C)o2)c1` returned an RP-LC retention time of 1170 s. The molecule `Cc1ccnc(NS(=O)(=O)c2ccc(NC(=O)C3COc4ccccc4O3)cc2)n1` (centres undefined) displayed an RP-LC retention time of 711 s.

With `O=C1CN(S(=O)(=O)c2ccccc2F)CC2(CCCCC2)N1C1CCCC1`, the RP-LC retention time turned out to be 1140 s.

`COc1ccc(NC(=O)Cn2nc(N3CCCC3)c3ccccc3c2=O)cc1OC` came in with an RP-LC retention time of 796 s.

In turn, `C=C(C)CNc1nc(-c2ccccc2)c(-c2ccccc2)s1` had an RP-LC retention time of 1040 s. `O=C(CCC1CCCN(C(=O)Nc2ccc(F)cc2)C1)NCc1ccc(Cl)cc1` (centres undefined): the RP-LC retention time came out at 856 s. Molecule `CC(=O)N1CCc2cc(S(=O)(=O)C(C)CC(=O)N3CCN(c4ccccc4)CC3)ccc21` (centres undefined) showed an RP-LC retention time of 787 s. With `COC(=O)c1ccc(C(=O)NCC2CCN(Cc3ccccc3SC)CC2)cc1`, the RP-LC retention time worked out at 567 s. The molecule `CN1C2CC(OC(=O)C(CO)c3ccccc3)CC1C1OC12` (centres undefined) returned an RP-LC retention time of 640 s. For `COc1cccc(NC(=O)C2CCN(C(=O)C3Sc4ccccc4NC3=O)CC2)c1` (centres undefined), the RP-LC retention time was found to be 752 s. In the case of `COc1cccc(NC(=O)N2CCN(c3cc(C)nc(N4CCOCC4)n3)CC2)c1`, the RP-LC retention time was determined as 628 s.

On to `COc1ccc([N+](=O)[O-])cc1NC(=O)c1cnc(N2CCN(c3ncccn3)CC2)c2ccccc12`, for which the RP-LC retention time is 973 s.

`COCCNC(=O)C1CCN(c2nc3ccc(-c4cccs4)nc3s2)CC1` returned an RP-LC retention time of 774 s. With `Cc1cc(-c2cc(S(=O)(=O)N3CCC(Cc4ccccc4)CC3)c(C)s2)n[nH]1`, the RP-LC retention time came out at 1090 s. In the case of `Cc1ccccc1OCC(=O)N1CCc2cc(-c3ccno3)ccc21` it was 971 s.

For the molecule `CCOc1ccc(CCNC(=O)CN2C(=O)CSc3cccn3-c3ccccc32)cc1OCC`, the RP-LC retention time came to 939 s. Turning to `O=C(Cc1c(F)cccc1Cl)NC1CCN(c2cc(-c3cccs3)[nH]n2)C1` (centres undefined), the RP-LC retention time stood at 747 s. For the molecule `CC(=O)Nc1c(C)noc1/C=C\c1ccc(C)c(S(=O)(=O)N2CCN(c3ccccn3)CC2)c1`, the RP-LC retention time was 666 s. With `O=C(NCc1csc(-c2ccccc2)n1)[C@H]1CCCN1C(=O)COc1ccc(Cl)cc1`, the RP-LC retention time is 861 s. For the molecule `COc1ccc(CNC(=O)c2cnc(OC)nc2)cc1`, the RP-LC retention time stood at 673 s. As to `Cc1ccc(S(=O)(=O)c2cnc(N3CCN(c4ccccc4Cl)CC3)nc2N)cc1`, the RP-LC retention time is 1230 s. As to `CCN(CC)S(=O)(=O)c1ccc2c(c1)nnn2CCC(=O)N1CCN(c2ccccn2)CC1`, the RP-LC retention time was found to be 616 s.

As for `O=C(NCc1ccc(N2CCOCC2)cc1)c1cn2c(n1)COCC2`, the RP-LC retention time was 597 s. The molecule `CC(=O)N1c2ccc(S(=O)(=O)N3CCCCC3)cc2CC1C(=O)N1CCCC1` (centres undefined) yielded an RP-LC retention time of 743 s. As to `CCc1ccc(NC(=O)Cn2nc(N3CCSCC3)c3ccccc3c2=O)cc1`, the RP-LC retention time amounted to 1040 s. Take `COc1ccc(Cl)cc1S(=O)(=O)N1CCC(n2cnnc2-c2ccccc2)CC1`: the RP-LC retention time turned out to be 825 s.

`CC(C)n1c(C2CCN(C(=O)Nc3ccc(Cl)cc3F)C2)nc2ccncc21` (centres undefined) yielded an RP-LC retention time of 567 s. `CCCCn1c(=O)c2ccccc2n(Cc2nc(-c3ccccc3Br)no2)c1=O` yielded an RP-LC retention time of 1170 s. `CCCc1nc(-c2c(C)cc(C)nc2NC(=O)c2ccccc2F)no1` gave an RP-LC retention time of 883 s. In turn, `CCCCCC[C@H]1C(=O)O[C@H](C)[C@H](NC(=O)c2cccc(NC=O)c2O)C(=O)O[C@@H](C)[C@@H]1OC(=O)CC(C)C` displayed an RP-LC retention time of 1100 s.

Consider `COc1ccc(C(=O)Nc2ccc3c(c2)Sc2ncccc2C(=O)N3C(C)C)c(OC)c1`, for which the RP-LC retention time amounted to 951 s. The molecule `CC1CCC(NC(=O)C2CCN(C(=O)c3ncn4c3COC(c3ccc(F)cc3)C4)CC2)CC1` (centres undefined) came in with an RP-LC retention time of 826 s. Regarding `CCc1cccc(-n2nnc(C(=O)NCCOC)c2-c2ccncc2)c1`, the RP-LC retention time came to 715 s.

For `CCOc1ccc2nc(C(=O)NCCN3CCc4ccccc4C3)cn2n1`, the RP-LC retention time is 577 s. In turn, `CCc1noc([C@@H]2CC(F)(F)CN2C(=O)c2cocn2)n1` showed an RP-LC retention time of 733 s. For `CC(C)n1c(=O)oc2cc(-c3noc(CNC(=O)Cc4ccc(Cl)cc4)n3)ccc21`, the RP-LC retention time was 911 s. Turning to `Cc1noc(Cn2cnc3c4ccccc4n(CC(=O)NC4CCCC4)c3c2=O)n1`, the RP-LC retention time was found to be 744 s. Next, `CCNC(=O)N1CCCC(Cn2c(C3CC3)nc3cccnc32)C1` (centres undefined): 585 s.

`O=S(=O)(c1cccs1)N1CCN(c2ccc(Nc3cccnc3)nn2)CC1` showed an RP-LC retention time of 548 s. `COCCNC(=O)N1CCCN(C2=NS(=O)(=O)C(c3ccccc3)=C2C)CC1` gave an RP-LC retention time of 676 s. Consider `O=C(O)C1CCN(S(=O)(=O)c2cccc([N+](=O)[O-])c2)CC1`, for which the RP-LC retention time came out at 663 s. For `CCc1nc(N)n(CC(=O)NCc2ccc(F)cc2)c(=O)c1C`, the RP-LC retention time came to 634 s. For `CO[C@H]1CN(C2CCN(S(=O)(=O)c3ccc(C#N)cc3)CC2)[C@H]1c1cccnc1`, the RP-LC retention time worked out at 609 s.

Turning to `Cc1nc2cc(N3CCC(C(=O)NCc4ccc5c(c4)OCO5)CC3)cnc2nc1C`, the RP-LC retention time was 699 s. `CCOC(=O)C1CCCN(C(=O)Cn2cnc(-c3cccs3)cc2=O)C1` (centres undefined) displayed an RP-LC retention time of 684 s. Next, `c1ccc(-c2noc(COC3CCCN(C4CCOCC4)C3)n2)cc1` (centres undefined): 628 s; `Cc1ccc(C2C=CC(C#N)=CN2Cc2ccccc2)cc1` (centres undefined): 1210 s; `O=C(NCc1ccc2c(c1)OCO2)c1c(O)c2cccnc2n(-c2ccc(F)cc2)c1=O`: 1120 s. Next, `CCOc1ccc2cccc(NC(=O)C3CCN(S(C)(=O)=O)CC3)c2n1`: 864 s.

`Cc1ccc(-c2nc(CN3CCCC3=O)no2)cc1`: the RP-LC retention time was found to be 782 s. In the case of `COc1ccc(CNC(=O)c2[nH]c3cc(C)sc3c2CN(C)C)cc1` it was 664 s. Consider `O=C(NCCc1csc(-c2cccc(F)c2)n1)c1ccc2c(c1)OCO2`, for which the RP-LC retention time was 847 s. Next, `CC(C)C(=O)NC(c1ccc(F)cc1)c1nnc(-c2ccccc2)o1` (centres undefined): 856 s; `CCOC(=O)Cn1c(=O)c2c(nc3n2CC(C)CN3CCc2ccccc2)n(C)c1=O` (centres undefined): 985 s; `O=C(CCCS(=O)(=O)c1ccc(F)cc1)Nc1nc2c(s1)COc1ccccc1-2`: 872 s.

On to `CC(C)C[C@H](NC(=O)Cn1cnc2ccccc2c1=O)C(=O)O`, for which the RP-LC retention time was found to be 649 s. As to `Cc1cc(C)cc(-n2c(CN3CCN(C(=O)Nc4ccc5c(c4)OCO5)CC3)nc3cccnc32)c1`, the RP-LC retention time was determined as 676 s. In the case of `O=C1CC(CNS(=O)(=O)c2cccnc2)CN1c1ccc(Cl)cc1` (centres undefined) it was 694 s.

In turn, `COCCNc1c(-c2cccc(OC)c2)nc2sc(C(=O)N(C)C)c(C)n12` yielded an RP-LC retention time of 698 s. In the case of `Cc1cc(C)n(-c2ccc(C(=O)NC3CCC(C)CC3)cn2)n1` (centres undefined) it was 1010 s. For `CCN(c1cccc(C)c1)S(=O)(=O)c1ccc2c(c1)N(C(C)=O)CCCS2`, the RP-LC retention time amounted to 986 s.

`CCN1C(=O)NC(c2ccccc2C(F)(F)F)C2=C1CN(CCC(=O)NCC(C)C)C2=O` (centres undefined) yielded an RP-LC retention time of 661 s.

For the molecule `COc1ccc2c(c1)C1(CCN(S(=O)(=O)c3ccc(Br)cc3)C1)C(=O)N2` (centres undefined), the RP-LC retention time stood at 881 s. As to `O=C(C1CC1)N1CCCC1c1nc2ccccc2s1` (centres undefined), the RP-LC retention time was 768 s. In turn, `COCCNCc1ccc(-c2cc(Cl)ccc2Cl)o1` displayed an RP-LC retention time of 684 s. Take `O=C(NCC(c1cccnc1)c1c[nH]c2ccccc12)Nc1cccc(F)c1` (centres undefined): the RP-LC retention time was found to be 671 s. `CCc1cccc(NC(=O)C2CCCN(S(=O)(=O)c3cc(-c4noc(C)n4)cs3)C2)c1` (centres undefined) registered an RP-LC retention time of 870 s. `COc1ccc(OCc2nc(-c3ccc4ncn(C(C)C)c4c3)no2)cc1` gave an RP-LC retention time of 727 s. In turn, `Cc1ccc(NC(=O)c2ccc(CN3CCN(C)CC3)cc2)cc1Nc1nc(-c2cccnc2)cs1` displayed an RP-LC retention time of 618 s. As to `CCc1ccc(-n2cc(C(=O)OCC(=O)OC)c3ccccc3c2=O)cc1`, the RP-LC retention time came out at 1080 s. In the case of `Cc1ccc(NC(=O)C2(C)Oc3cccnc3NC2=O)cc1F` (centres undefined) it was 755 s; in that of `COCCn1cc2c3c(cccc31)CN(C(=O)Cc1c(F)cccc1Cl)CC2`, 967 s; in that of `CCCCn1c(=O)c2ccccc2n(Cc2nc(-c3cccc(Br)c3)no2)c1=O`, 1280 s.
